# Measurements published in paper PMC7529893, “Structural basis for substrate recognition and chemical inhibition of oncogenic MAGE ubiquitin ligases” (Nature Communications, 2020).
# Target: T1, MAGE-A11:PCF11 interaction (GST-MAGE-A11 and FAM-PCF11_4) (Homo sapiens, UniProt P43364)
# T1 construct: GST-MAGE-A11 MHD (human MAGE-A11 MHD amino acid 218-429); made in house; host or cells: E. coli BL21(DE3)
# T1 sequence (P43364 218-429): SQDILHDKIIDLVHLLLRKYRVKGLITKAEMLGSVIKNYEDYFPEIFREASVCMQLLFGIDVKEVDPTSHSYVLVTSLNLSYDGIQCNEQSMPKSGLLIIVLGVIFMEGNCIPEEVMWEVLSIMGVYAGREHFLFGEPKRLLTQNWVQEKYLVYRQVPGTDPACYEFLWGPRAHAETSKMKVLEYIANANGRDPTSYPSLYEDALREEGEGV
# Test: TR-FRET primary / single point screen at 15 µM
# Type: binding
# Conditions: single point TR-FRET screening of 797 quinoline compounds against MAGE-A11:PCF11
# Description: The TR-FRET assay buffer with a formula of 50 mM Tris pH 7.5, 20 mM MgCl2, 0.1 mg/ml BSA and 1 mM DTT was freshly prepared before each experiment. All TR-FRET assays were performed in black 384-well plates with 20 µl/well assay volume in the TR-FRET assay buffer at room temperature (~25 °C). All peptides or compounds were solubilized in DMSO. To test the competitive activity of peptides or compounds against the interaction between GST-MAGE-A11 MHD and FAM-PCF11_4 peptide, 10 µl/well peptide or compound at specified concentration was dispensed into a black 384-well low volume plate, followed by 5 µl/well FAM-PCF11_4 (800 nM), 5 µl/well Tb-anti-GST (20 nM), and GST-MAGE-A11 MHD (20 nM). The assay components in each well was then mixed by shaking the plate on an IKA MTS 2/4 digital microtiter plate shaker (IKA Works; Wilmington, NC, USA) for 1 min. The plate was further centrifuged in an Eppendorf 5810 centrifuge with an A-4-62 swing-bucket rotor (Eppendorf AG, Hamburg, Germany) at 201 g for 30 s. The plate was then incubated for 90 min with a lid to avoid light exposure to the assay components. After incubation, the fluorescent emission signals at 520 nm and 490 nm channels of individual wells were measured with a PHERAstar FS plate reader (BMG Labtech; Durham, NC, USA) by using a 340 nm excitation filter, 100 µs delay time, and 200 µs integration time. The TR-FRET fluorescence emission ratio (TR-FRET signal) for each well was presented as 10,000 × 520 nm/490 nm, which was used directly for curve fitting, or further converted to %Inhibition based on the respective positive and negative controls. The graphic software GraphPad Prism 4.81 (GraphPad Software; La Jolla, CA, USA) was used to generate curves and derive IC50 values of tested peptides or compounds, if applicable. TR-FRET screen for identifying MAGE-A11 small molecule inhibitors was performed as follows. The primary one-concentration screening and subsequent 10 or 20-concentration dose-response tests were accomplished with an automated High Throughput Screening system (HighRes Biosolutions, Beverly, MA)[30]. In the primary screening, 15 µl/well FAM-PCF11_4 (267 nM) was first dispensed with a Multidrop Combi Reagent Dispenser (Thermo Fisher Scientific, Waltham, MA) to black 384-well low-volume assay plates. The plates were spun down with a Velocity11 VSpin microplate centrifuge (Agilent Technologies, Santa Clara, CA). In total, 30 nl/well of 10 mM compound/DMSO solutions, or DMSO alone, were transferred from compound plates (the St. Jude FDA drug and bioactive library, Drug-like library and Lead-like library) or a control plate to the assay plates with a Pin Tool (V&P Scientific, San Diego, CA). The compounds were arrayed in columns 3–12 and columns 15–24 of compound plates. The controls were arrayed in columns 1, 2, 13, and 14 of a compound plate. In all, 5 µl/well Tb-anti-GST (20 nM) and GST-MAGE-A11 (20 nM) or 5 µl/well Tb-anti-GST (20 nM) alone was then dispensed to selected wells with a Multidrop Combi Reagent Dispenser. The final assay volume was 20 µl/well. […] The final tested compound concentration was 15 µM. The final FAM-PCF11_4 concentration was 200 nM and the final Tb-anti-GST concentration was 5 nM. The final GST-MAGE-A11 concentration was 5 nM except for those selected positive control wells in which GST-MAGE-A11 was not presented. The plates were then shaken with a big bear shaker (Big Bear Automation, Santa Clara, California) and spun down with the Velocity11 VSpin microplate centrifuge for 20 s. The plates were then incubated at room temperature in a Liconic incubator (Liconic US, Woburn, MA) for 90 min. The TR-FRET signals for individual wells were measured with a PHERAstar FS plate reader. The %Inhibition of each tested inhibitor was calculated by using Eq. 1. Those inhibitors with %Inhibition >30% in the primary screening were selected for further dose-response test, along with additional newly synthesized compounds. […]
row,percent inhibition (TR-FRET),SMILES
1,11.7451,Cc1cc(C)c(CN2CCC(Nc3ccnc4cc(Cl)ccc34)CC2)c(C)c1 [SJ000523084]
2,-0.9277,CCOC(=O)c1cnc2ccc(Cl)cc2c1N1CCN(C)CC1 [SJ000187322]
3,-7.064,CCOC(=O)c1cnc2ccc(OCC)cc2c1N1CCN(C)CC1 [SJ000279526]
4,-127.586,COc1ccc2nc3cc(Cl)ccc3c(NCCCNCc3ccncc3)c2c1 [SJ000523023]
5,23.3769,Clc1ccc2c(NCCCCN(CCc3ccccc3)Cc3ccccc3)ccnc2c1 [SJ000361211]
6,-127.926,CCCN(CCCNc1c2ccc(Cl)cc2nc2ccc(OC)cc12)Cc1ccccc1 [SJ000520925]
7,-2.592,CCN(CC)CCCC(C)Nc1ccnc2cc(Cl)ccc12 (stereo not drawn) [SJ000285185]
8,-220.357,COc1ccc2nc3cc(Cl)ccc3c(NCCCNCc3cc4ccccc4s3)c2c1 [SJ000521000]
9,24.6356,Clc1ccc2c(NCCCCN(Cc3ccccc3)Cc3ccc4ccccc4c3)ccnc2c1 [SJ000361205]
10,0.8927,O=[N+]([O-])c1cccc(CN2CCC(Nc3ccnc4cc(Cl)ccc34)CC2)c1 [SJ000523095]
11,3.9003,CCN1CCN(c2c(C(=O)c3ccc(C)cc3)cnc3ccc(OC)cc23)CC1 [SJ000247282]
12,9.598,O=C(O)CCCNC(=O)CNc1c2ccccc2nc2ccccc12 [SJ000016432]
13,15.4273,Clc1ccc2c(NC3CCN(CC4CCCCC4)CC3)ccnc2c1 [SJ000523085]
14,0.6542,CCOC(=O)c1ccc2ncc(C(=O)OCC)c(NCCN3CCOCC3)c2c1 [SJ000031347]
15,-15.701,O=S(=O)(c1ccccc1)c1cnc2ccc(Cl)cc2c1N1CCN(c2ccccc2)CC1 [SJ000083977]
16,-6.389,CCOc1ccc2ncc(S(=O)(=O)c3ccc(OC)cc3)c(N3CCN(CC)CC3)c2c1 [SJ000083971]
17,-6.103,CCOC(=O)c1cnc2c(CC)cccc2c1NCCN1CCOCC1 [SJ000279714]
18,-2.194,O=C(O)c1ccccc1CN1CCC(Nc2ccnc3cc(Cl)ccc23)CC1 [SJ000523098]
19,-302.626,CCCN(CCCNc1c2ccc(Cl)cc2nc2ccc(OC)cc12)Cc1cccn1C [SJ000522987]
20,-120.975,CCCN(CCCNc1c2ccc(Cl)cc2nc2ccc(OC)cc12)CCC(C)c1ccccc1 (stereo not drawn) [SJ000522731]
21,-16.1911,CC(=O)Nc1ccc(S(=O)(=O)N2CCN(c3ccnc4cc(Cl)ccc34)CC2)cc1 [SJ000193862]
22,19.0968,CCCCCN(CCCCNc1ccnc2cc(Cl)ccc12)Cc1ccccc1 [SJ000361196]
23,7.146,CCN1CCN(c2c(S(=O)(=O)c3ccc(C)cc3)cnc3cc(OC)c(OC)cc23)CC1 [SJ000083965]
24,-257.115,COc1ccc2nc3cc(Cl)ccc3c(NCCCNCc3cccc4c3OCO4)c2c1 [SJ000520991]
25,-12.8602,Cc1csc(CN(CCCCNc2ccnc3cc(Cl)ccc23)Cc2ccccc2)n1 [SJ000520456]
26,6.622,Fc1cccc(CN2CCC(Nc3ccnc4cc(Cl)ccc34)CC2)c1 [SJ000523092]
27,5.888,Cn1ccnc1CN(CCCCNc1ccnc2cc(Cl)ccc12)Cc1ccccc1 [SJ000520435]
28,-398.22,COc1ccc2nc3cc(Cl)ccc3c(NCCCNCc3ccc(F)cc3)c2c1 [SJ000523035]
29,-2.791,CCOC(=O)c1cnc2ccc(OC)cc2c1N1CCN(C)CC1 [SJ000279507]
30,27.8155,Clc1ccc2c(NCCCCN(CCCc3ccccc3)Cc3ccccc3)ccnc2c1 [SJ000522729]

# Same assay, conditions: single point TR-FRET screening of quinoline compounds against MAGE-A11:PCF11; 15 µM
row,percent inhibition (TR-FRET),SMILES
1,41.8599,FC(F)(F)c1ccc2c(NCCCNCc3csc4ccccc34)ccnc2c1 [SJ000521061]
2,14.4057,Clc1ccc2c(NCCCN(CCc3ccccc3)Cc3ccccc3)ccnc2c1 [SJ000357580]
3,15.4935,CCCN(CCCNc1ccnc2cc(C(F)(F)F)ccc12)Cc1cccc(OC)c1O [SJ000361260]
4,18.9568,Cn1cccc1CNCCCNc1ccnc2cc(Cl)ccc12 [SJ000521019]
5,26.2256,CCCN(CCCNc1ccnc2cc(Cl)ccc12)Cc1c[nH]c2ccccc12 [SJ000523007]
6,15.1623,CCCN(CCCNc1ccnc2cc(Cl)ccc12)Cc1ccc(OC)c(F)c1 [SJ000522994]
7,17.481,CCCN(CCCNc1ccnc2cc(Cl)ccc12)Cc1cccc(C(F)(F)F)c1 [SJ000523013]
8,16.8563,CCCN(CCCNc1ccnc2cc(C(F)(F)F)ccc12)Cc1ccccc1C(=O)O [SJ000523073]
9,12.7774,CCCCN(CCC)CCCNc1ccnc2cc(Cl)ccc12 [SJ000357571]
10,20.6371,CCCN(CCCNc1ccnc2cc(C(F)(F)F)ccc12)Cc1cc(F)ccc1C [SJ000521014]
11,-4.499,CCOC(=O)c1cnc2c(CC)cccc2c1NCCCN1CCOCC1 [SJ000185196]
12,27.7788,FC(F)(F)Oc1cccc(CN(CCCNc2ccnc3cc(Cl)ccc23)Cc2ccccc2)c1 [SJ000520464]
13,19.1371,CCCN(CCCNc1ccnc2cc(Cl)ccc12)Cc1ccccc1 [SJ000357431]
14,24.0531,CN(C)CCCNc1c2c(nc3ccccc13)CCC2 [SJ000029259]
15,12.0487,CCCN(CCCNc1ccnc2cc(Cl)ccc12)Cc1[nH]cnc1C [SJ000523010]
16,9.295,CCCN(CCCNc1ccnc2cc(Cl)ccc12)Cc1cc2ccccc2o1 [SJ000522991]
17,36.2507,COc1ccc(Oc2ccc3c(NCCCNCc4ccco4)ccnc3c2)cc1 [SJ000311218]
18,19.4021,CCCN(CCCNc1ccnc2cc(Cl)ccc12)Cc1c(F)cccc1OC [SJ000357499]
19,28.0024,CCCN(CCCNc1ccnc2cc(C(F)(F)F)ccc12)CCCc1ccccc1 [SJ000523080]
20,96.845,CCCN(CCCNc1ccnc2cc(Cl)ccc12)Cc1ccc2[nH]ccc2c1 [SJ000522746]
21,11.4651,CCCN(CCCNc1ccnc2cc(C(F)(F)F)ccc12)Cc1c(F)cccc1C(F)(F)F [SJ000520481]
22,-38.0341,CCCN(CCCNc1ccnc2cc(Cl)ccc12)Cc1ccccc1C(F)(F)F [SJ000522745]
23,26.6585,CCCN(CCCNc1ccnc2cc(Cl)ccc12)Cc1cc(OC)ccc1F [SJ000522996]
24,17.3802,CCCN(CCCNc1ccnc2cc(C(F)(F)F)ccc12)Cc1ccc(OC(F)(F)F)cc1 [SJ000520474]
